In one assay the target is T1, IDH2 R140L_Q316E cis (Homo sapiens, UniProt P48735, Q316E/R140L).
T1 construct: expressed in transfected cells; host or cells: U-87 MG
T1 sequence (P48735 40-452 R140L/Q316E): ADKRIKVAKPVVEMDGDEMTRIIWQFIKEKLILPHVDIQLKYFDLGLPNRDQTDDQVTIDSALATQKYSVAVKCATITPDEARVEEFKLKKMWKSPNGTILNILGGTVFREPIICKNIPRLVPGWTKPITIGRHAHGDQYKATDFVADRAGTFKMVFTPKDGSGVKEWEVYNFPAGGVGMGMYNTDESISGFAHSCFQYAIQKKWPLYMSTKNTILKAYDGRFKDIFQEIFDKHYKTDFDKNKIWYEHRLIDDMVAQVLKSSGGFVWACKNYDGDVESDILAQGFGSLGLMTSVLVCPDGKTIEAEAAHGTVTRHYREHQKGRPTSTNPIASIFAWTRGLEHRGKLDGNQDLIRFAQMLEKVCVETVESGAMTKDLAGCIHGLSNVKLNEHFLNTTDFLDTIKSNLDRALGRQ
The experiment in a line: Inhibition of 2-HG production in IDH2 mutant U-87 MG cells. The assay is classed as cell-based. The conditions noted are these: 16 hours incubation, 50K cells/well, 100 μl media/well, read-out: Relative IC50 (nM) Mean, inhibition of 2-HG production. The procedure: (§1) Compounds and Formulation. Compound A may be synthesized as described in WO/18/111707. Compound A is prepared as a 20 mM stock in 100% DMSO (dimethyl sulfoxide) (Sigma, D2438) and diluted serially in 100% DMSO to achieve the desired concentrations. DMSO preparations are further diluted with cell culture media prior to addition in the assay.
(§2) Cell lines. U-87 MG cells (ATCC, HTB-14) are cultured and assayed in MEM (Gibco, 11095) with 2 mM GlutaMAX (Gibco, 35050), 1 mM Pyruvate (Gibco, 11360), 0.1 mM NEAA ((Non-essential amino acid) Gibco, 11140) and 10% dialyzed FBS (Fetal bovine serum) (Gibco, 26400).
(§3) Cell-based inhibition assays. Cell-based assays are performed by measuring 2-HG in U-87 MG cells in which IDH2 mutations are expressed.
(§4) DNA constructs encoding IDH2 mutations are introduced into U-87 MG cells using transfection (Promega FuGENE HD, E2311) or lentiviral transduction, and the IDH2-mutant expressing cell lines are selected using blasticidin (5 μg/ml) or puromycin (1 μg/ml). Second site mutations (Q316E, I319M, P167R, and G260A) are evaluated in cis (same monomer as driver mutation within dimer) or in trans (opposite monomer from driver mutation in dimer). For compound treatments, 12,500 or 50,000 cells per well in culture medium (150 μl or 100 μl, respectively) are plated in 96 well cell culture plates (Falcon, 353377) 2 hrs prior to treatment. Cells are treated with serial dilutions of compound A in standard growth media. Plates are incubated in a mammalian cell culture incubator (humidified, 37° C., 5% CO2) for 16 or 72 hrs. Following the incubation period, the media is aspirated and cell extracts are prepared by addition of ice-cold 80% methanol/20% water (100 μL) containing liquid chromatography-mass spectrometry (LC-MS) internal standards (1 μM ^13C4 α-KG and ^13C5 2-HG) per well for ion pairing LC-MS method. 96-well sample plates are then sealed, shaken at 450 rpm for 10 min, and then placed at −20° C. and stored until LC-MS analysis.
(§5) LC-MS metabolite analysis of conditioned media and cell lysates. The effect of inhibitors on the concentrations of 2-HG are determined by LC-MS analysis of cell lysates using an ion-pairing method as described below.
(§6) Calibration curves are prepared by spiking 2-HG and α-KG into 80% methanol/20% water containing LC-MS internal standards (1 μM ^13C4 α-KG and 1 μM ^13C5 2-HG). The quantitation of 2-HG and α-KG is accomplished using an AB Sciex 6500 mass spectrometer with an Electrospray Ionization (ESI) probe and interfaced with an Ultra Performance Liquid Chromatography (UHPLC) system in the negative multiple-reaction monitoring (MRM) mode. The UHPLC system consists of an Agilent 1290 binary pump, thermostatted column compartment (TCC), and sampler. The injection volume is 1 μL for cell culture extracts. The extracts are chromatographically resolved using a Hypercarb column, 2.1×20 mm, […] Javelin HTS (Thermo Scientific, PN: 35005-022135). Mobile phase A is water/10 mM tributylamine/15 mM acetic acid. Mobile phase B is acetonitrile/20 mM tributylamine/30 mM acetic acid. The solvent flow rate is 1.0 mL/min. The isocratic condition is kept at 26% mobile phase B. The valve, sample loop, and needle are washed with 50% acetonitrile: 50% methanol for 20 seconds. The column temperature is kept at 55° C. Calibration curves are calculated by least-square linear regression with 1/x weighting. 2-HG and α-KG are quantified using standard curve and ratio of the peak area of analytes to internal standard. Data analysis is performed using MultiQuant 3.0 (AB Sciex). The raw data are exported to Microsoft Excel spreadsheets.
(§7) Determination of IC50 Curves. IC50 curves for each compound are obtained using four parameter data fitting analysis in GraphPad/Prism software.

A further assay has as its target T2, IDH2 R172K (Homo sapiens, UniProt P48735, R172K).
T2 sequence (P48735 40-452 R172K): T1 sequence (P48735 40-452 R140L/Q316E) with L101R, R133K, E277Q
The description is as above. The assay is classed as cell-based. On the procedure:
as §1, §2, §3, §4, §5, §6, §7

Where a chain is given by its changes, count along the chain named. Read-outs that look alike come from different tables or passages of the source.

As to `C=CC(=O)N1CCN([C@@H](CC2CC2)c2ccc([C@H](C)Nc3ncc4c(n3)N(CC)C(=O)OC4)cc2)CC1` [Compound A, 7-[[(1S)-1-[4-[(1S)-2-cyclopropyl-1-(4-prop-2-enoylpiperazin-1-yl)ethyl]phenyl]ethyl]amino]-1-ethyl-4H-pyrimido[4,5-d][1,3]oxazin-2-one], the IC50 (usually the midpoint of a concentration-inhibition curve) was found to be 145 nM at IDH2 R140L_Q316E cis; 56 nM on IDH2 R172K (16 hours incubation, 50K cells/well, 100 μl media/well, read-out: Relative IC50 (nM) Mean, inhibition of 2-HG production); 13.5 nM on IDH2 R172K (72 hours incubation, 12.5K cells/well, 150 μl media/well, read-out: IC50, inhibition of 2-HG production).

The values are drawn from patent publication US20240261294A1, “METHOD FOR TREATING IDH INHIBITOR-RESISTANT SUBJECTS” (Eli Lilly and Company, priority 2021, published 2024).
